Results as given in paper PMC7584369, “Di-bromo-Based Small-Molecule Inhibitors of the PD-1/PD-L1 Immune Checkpoint” (Journal of Medicinal Chemistry, 2020).
Values joined by “and” are separate entries in the source; they are usually repeats but may differ in a detail not shown here. Equal entries are not always repeated. “Also recorded” adds a separate entry of the source.

Columns and labels:
wtPD-1/PD-L1 complex = biological target: T1, wtPD-1/PD-L1 complex (Homo sapiens, UniProt Q9NZQ7); assay: AIDA-NMR with wild-type proteins; type: binding; settings: wild-type PD-1
T1 construct: hPD-L1 residues, 18–134, C-terminal His-tag; His-tag (C); made in house; host or cells: Escherichia coli BL21 (DE3)
T1 sequence (Q9NZQ7 18-134, one chain of several): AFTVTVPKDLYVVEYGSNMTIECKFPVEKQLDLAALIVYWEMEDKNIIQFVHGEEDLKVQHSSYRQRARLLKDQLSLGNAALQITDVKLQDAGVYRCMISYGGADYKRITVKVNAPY

human PD-1/PD-L1 complex = biological target: T2, human PD-1/PD-L1 complex (Homo sapiens, UniProt Q9NZQ7); assay: Competitive ELISA; type: binding; settings: dissociation of human PD-1/PD-L1 complex
T2 construct: Fc; purchased Recepton Sp. z o.o; R1-002-1 (PD-L1); R1-001-1 (PD-1)
T2 sequence (Q9NZQ7 19-238 limits assumed, one chain of several): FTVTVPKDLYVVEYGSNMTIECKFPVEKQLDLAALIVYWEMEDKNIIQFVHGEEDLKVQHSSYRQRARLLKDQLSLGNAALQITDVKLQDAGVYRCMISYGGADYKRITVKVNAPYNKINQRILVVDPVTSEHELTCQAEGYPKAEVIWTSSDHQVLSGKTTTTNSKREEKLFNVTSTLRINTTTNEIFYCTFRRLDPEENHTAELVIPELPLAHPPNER

human PD-L1 [1] = biological target: T3, human PD-L1 (Homo sapiens, UniProt Q9NZQ7); assay: 1H NMR binding assay; settings: molar ratio 1:1
T3 construct: hPD-L1 residues, 18–134, C-terminal His-tag; His-tag (C); made in house; host or cells: Escherichia coli BL21 (DE3)
T3 sequence (Q9NZQ7 18-134): as the sequence (Q9NZQ7 18-134, one chain of several) above
Protocol: The direct binding of the most prominent compounds 2k and 3d to the human PD-L1 was also confirmed with a ^1H NMR method (Figure S3).
Figure S2 ELISA assay results.
High-binding 96 well plates (Thermo Scientific, cat. 439454) were coated with 1.2 μg/ml (50 μL/well) of Fc-tagged human PD-1 (Recepton Sp. z o.o., cat. R1-001-1) and incubated overnight at 4 ◦C. The plates were warmed to room temperature, washed with wash buffer (1 x PBS, 0.05% Tween 20, pH 7.4) and blocked with 1 % BSA in 1 x PBS, pH 7.4 for 2 h. Standard curve was generated with 0.02 – 50 ug/mL His- and Fc- tagged human PD-L1 (Recepton Sp. z o.o., cat. R1-002-1). […] The bound ligand was detected with the addition of 50 μL/well biotinylated Anty-His antibody (Southern Biotech, cat. 4603-08) followed by 1 h incubation, wash steps and addition of 50 μL/well streptavidin-HRP (Thermo Scientific, cat. 21126). […] The absorbance readings were made on Tecan Spark at the wavelength 450 nm and the reference wavelength 655 nm. IC50 was calculated based on the Δ((A450-A655) from sample – (A450-A655) from background) readings fitted in the plot using a Hill’s […]
For NMR measurements, the buffer was exchanged by gel filtration to PBS pH 7.4. […] All spectra were recorded at 300 K using a Bruker Avance III 600 MHz spectrometer. […]

[2] = biological target: T4, hPD-1/hPD-L1 immune checkpoint (hPD-L1 aAPCs and Jurkat hPD-1 effector cells) (Homo sapiens, UniProt Q9NZQ7); assay: hPD-1/hPD-L1 immune checkpoint blockade cell-based assay (Promega Blockade Bioassay); settings: at a 50 μM concentration
T4 construct: host or cells: CHO K-1 (hPD-L1 aAPCs) and Jurkat T cells (hPD-1 effector cells)
T4 sequence (Q9NZQ7 19-290): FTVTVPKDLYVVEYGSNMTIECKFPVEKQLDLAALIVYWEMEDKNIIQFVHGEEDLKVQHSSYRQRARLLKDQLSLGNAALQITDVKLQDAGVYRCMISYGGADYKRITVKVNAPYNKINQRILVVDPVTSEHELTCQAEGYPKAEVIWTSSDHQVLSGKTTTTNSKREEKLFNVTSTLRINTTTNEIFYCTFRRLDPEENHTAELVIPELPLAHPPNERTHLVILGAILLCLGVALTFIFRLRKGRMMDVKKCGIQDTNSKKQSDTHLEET

[3] = test system: Jurkat PD-1 Effector Cells alone or in co-culture with CHO K-1 PD-L1 aAPCs; assay: Cytotoxicity / cell viability assay (tetrazolium reagent); type: cell-based; settings: not toxic up to the stated final concentration
primary human T cells = assay: Flow cytometry of activation markers on primary T cells (PBMCs on hPD-L1 aAPCs); type: cell-based; settings: 48 h
Protocol: The biological activity of the compound 2k was further verified on the primary T cells. For this, peripheral blood mononuclear cells (PBMCs) isolated from the blood of healthy donors were contacted with hPD-L1 aAPCs to provide TCR-mediated activation of T cells and the engagement of PD-1/PD-L1 immune checkpoint. The cells were then analyzed with flow cytometry following the gating for CD4^+ and CD8^+ T cells. The blockade of the PD-1/PD-L1 immune checkpoint was expected to increase the activation of T cells. In the experiment, atezolizumab and compound 2k were used. […] Because the prolonged activation of T cells leads to the increase of the expression of immune checkpoint molecules,[30] we have monitored the expression of PD-1 protein itself as an indicator of the late T cell activation and exhaustion. […] This confirms the bioactivity of the compound 2k in the context of primary T cells.
Blood samples from healthy donors were purchased from the Regional Center of Blood Donation and Blood Therapy in Krakow. PBMCs were isolated by a density gradient centrifugation using Pancoll human separating solutions (PAN-Biotech) and then resuspended in RPMI 1640 medium (Biowest) containing 10% FBS (Biowest).
PBMCs were added to the preseeded aAPCs at the density of 400 000 cells/well and incubated in the presence of compound 2k, DMSO, and with or without atezolizumab (5 μg/mL) as an anti-PD-L1 monoclonal antibody. After 48 h, cells were detached using TrypLe Select Enzyme (Thermo Fisher Scientific), collected into 5 mL round-bottom tubes, and washed with flow cytometry staining buffer (Thermo Fisher Scientific). For flow cytometry analysis, cells were stained using monoclonal antibodies: anti-CD69-APC, anti-CD4-FITC, anti-CD8-BV510, and anti-PD1-PECy7 (Becton Dickinson, BD). Following 20 min of incubation at room temperature, cells were washed, resuspended in PBS, and analyzed using a FACSCanto II flow cytometer (BD) and FACSDiva software (BD). The data analysis was carried out with FACSuite software (BD).

human PD-L1 [4] = biological target: T3, human PD-L1; assay: MicroScale Thermophoresis (MST) binding assay, human PD-L1; settings: hPD-L1
murine PD-L1 = biological target: T5, murine PD-L1 (Mus musculus, UniProt Q9EP73); assay: MicroScale Thermophoresis (MST) binding assay, murine PD-L1; settings: mPD-L1
T5 construct: mPD-L1 residues, 19–134; made in house; host or cells: Escherichia coli BL21 (DE3)
T5 sequence (Q9EP73 19-134): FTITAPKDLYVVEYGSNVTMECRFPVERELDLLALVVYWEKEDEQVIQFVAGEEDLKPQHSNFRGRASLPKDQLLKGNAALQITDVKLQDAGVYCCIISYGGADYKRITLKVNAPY

PD-L1 = settings: several independent biophysical and cell-based assays; cited from earlier work

O=C(O)[C@@H]1CCCCN1Cc1ccc(OCc2cccc(-c3ccccc3)c2Br)c(Br)c1 [2k, (S)-1-(3-Bromo-4-((2-bromo-[1,1′-biphenyl]-3-yl)methoxy)benzyl)piperidine-2-carboxylic Acid]
dissociation of the wtPD-1/PD-L1 complex (wtPD-1/PD-L1 complex): dissociated | IC50 (human PD-1/PD-L1 complex): 1.47 ± 0.05 nM | direct binding to hPD-L1 (1H NMR) (human PD-L1 [1]): caused flattening of 2D spectra characteristic for the dimerization; also recorded: caused a characteristic dimerization of hPD-L1 | level of the Jurkat T cell activation [2]: 2.1 fold | toxic concentration in cell viability assay [3]: > 100 µM | expression of PD-1 receptor on the surface of CD4+ and CD8+ T cells (primary human T cells): significant increase | expression of early T-cell activation marker CD69 (primary human T cells): Neither of the two molecules was able to increase | Kd (human PD-L1 [4]): 4.04 nM and 4 nM | MST KD (murine PD-L1): no activity

C[C@@H](O)[C@H](NC(=O)N[C@@H](CC(N)=O)c1nc([C@@H](N)CO)no1)C(=O)O [CA-170]
direct binding to PD-L1 (PD-L1): not a direct PD-L1-binder
